Here are results for ten compounds from US20130203659A1 (priority 2006, published 2013).

The target in assay [1] is T1, human GLP-1 receptor (Homo sapiens, UniProt P43220).
T1 construct: expressed in transfected cells; host or cells: CHOK1 cells with a cAMP-regulated luciferase reporter construct
Briefly: GLP-1R reporter assay (cAMP-regulated luciferase, CHOK1 cells), human receptor. It counts as cell-based. Here is the method:
(§1) A. GLP-1R Reporter Assay:
(§2) Increased cAMP levels were measured through enhanced expression of a luciferase reporter gene. […] The evening prior to assay, the cells were washed, the medium replaced with serum-free medium containing 0.5% protease-free bovine serum albumin (BSA), and then cultured overnight. […] Cell lysates were assayed for luciferase activity using the Luciferase Assay System (Promega Corporation, Madison, Wis.). Luciferase activity was measured using a Luminoskan Ascent (Thermo Electron Corporation, Marietta, Ohio). Nonlinear regression analyses of resultant compound concentration curves were performed using GraphPad Prism (GraphPad Software, Inc., San Diego, Calif.).
For orientation: Reporter assays use an easily measured gene product as a stand-in for the process of interest.

The target in assay [2] is T2, mouse GLP-1 receptor (Mus musculus, UniProt O35659).
T2 construct: expressed in transfected cells; host or cells: CHOK1 cells with a cAMP-regulated luciferase reporter construct
T2 sequence (O35659 22-463): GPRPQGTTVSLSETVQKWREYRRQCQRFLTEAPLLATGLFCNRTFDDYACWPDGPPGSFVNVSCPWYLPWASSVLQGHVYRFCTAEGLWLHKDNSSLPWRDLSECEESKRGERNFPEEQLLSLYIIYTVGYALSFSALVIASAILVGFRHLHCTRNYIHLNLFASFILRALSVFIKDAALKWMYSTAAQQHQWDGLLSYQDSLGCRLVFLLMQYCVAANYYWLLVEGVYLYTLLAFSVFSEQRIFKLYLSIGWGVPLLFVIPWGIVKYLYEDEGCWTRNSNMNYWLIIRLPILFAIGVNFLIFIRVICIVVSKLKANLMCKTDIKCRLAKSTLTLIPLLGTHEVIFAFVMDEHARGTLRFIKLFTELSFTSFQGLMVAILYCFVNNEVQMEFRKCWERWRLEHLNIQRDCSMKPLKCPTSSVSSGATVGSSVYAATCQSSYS
Briefly: GLP-1R reporter assay (cAMP-regulated luciferase, CHOK1 cells), mouse receptor. Format: cell-based. To be noted: 6 hours exposure. Here is the method:
as §1, §2

For assay [3], the target named is T1, human GLP-1 receptor. Briefly: In vitro GLP-1 receptor binding (125I-GLP-1 ligand binding assay), human receptor. Here is the method: Cells were sedimented at 1500 rpm for 10 minutes. The resulting pellets were homogenized in 15 mls of ice cold sucrose buffer (25 mM Tris-HCl, 0.32 M Sucrose, 0.25 g/L sodium azide, pH 7.4) with a motorized, glass fitted, Teflon homogenizer. The homogenate was centrifuged at 48,000×g at 4° C. for 10 minutes, resuspended in 25 ml assay buffer (50 mM Tris-HCl, 5 mM MgCl2, 10 mg/ml protease-free BSA, 0.1 mg/ml STI, and 0.1 mg/ml Pefabloc, pH 7.4) with a Tissue-Tearor (Biospec Products), then centrifuged again at 48,000×g for 10 minutes. The pellets were homogenized for a third time in 15 ml assay buffer using the Tissue-Tearor and again centrifuged at 48,000×g for 10 minutes. The resulting pellet was resuspended in assay buffer at a wet weight concentration of 4 mg/ml.
Binding assays were performed in 96-well U-bottom plates. […] Bound radioactivity was determined using a TopCount microplate scintillation and luminescence counter (Packard Instrument Company, PerkinElmer, Shelton, Conn.). Nonlinear regression analyses of resulting concentration curves were performed using GraphPad Prism (GraphPad Software, Inc., San Diego, Calif.).

Where [4] appears, read: luciferase reporter, 6 hours exposure, read-out: EC50 human.
The mark [5] stands for this setting: membranes of CHOK1 cells expressing human GLP-1 receptor, 0.2 nM 125I-GLP-1.

Like-named read-outs stand apart in the source and are kept apart here. Positions of bridges follow the written chain, without caps; N, C: chain ends. Residues, ends and D or L forms follow the SMILES beside them. No end group written: not given here. branched PEG 40 kDa = branched polyethylene glycol of 40 kDa

T1 sequence (P43220 24-463): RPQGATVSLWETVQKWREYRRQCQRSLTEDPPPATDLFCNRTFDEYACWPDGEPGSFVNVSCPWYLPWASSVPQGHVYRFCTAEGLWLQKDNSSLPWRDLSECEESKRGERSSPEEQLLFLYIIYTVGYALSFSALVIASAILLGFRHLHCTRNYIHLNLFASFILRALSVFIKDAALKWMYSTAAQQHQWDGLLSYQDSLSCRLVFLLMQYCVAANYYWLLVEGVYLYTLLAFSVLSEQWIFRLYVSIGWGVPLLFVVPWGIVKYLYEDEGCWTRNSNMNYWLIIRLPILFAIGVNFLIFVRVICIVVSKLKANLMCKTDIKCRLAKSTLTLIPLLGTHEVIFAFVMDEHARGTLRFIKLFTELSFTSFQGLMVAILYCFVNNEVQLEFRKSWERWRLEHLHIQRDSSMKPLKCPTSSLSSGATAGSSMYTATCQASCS

In general, EC50 refers to the concentration at which the effect is half-maximal. With `CC[C@H](C)[C@H](NC(=O)[C@H](Cc1ccccc1)NC(=O)[C@H](CCC(=O)O)NC(=O)[C@@H]1CCC(=O)NCCCC[C@H](NC(=O)[C@H](CCC(=O)O)NC(=O)[C@H](CC(C)C)NC(=O)[C@H](Cc2ccc(O)cc2)NC(=O)[C@H](CO)NC(=O)[C@H](CO)NC(=O)[C@@H](NC(=O)[C@H](CC(=O)O)NC(=O)[C@H](CO)NC(=O)[C@@H](NC(=O)[C@H](Cc2ccccc2)NC(=O)[C@@H](NC(=O)CNC(=O)[C@H](CCC(=O)O)NC(=O)CNC(=O)[C@@H](N)Cc2c[nH]cn2)[C@@H](C)O)[C@@H](C)O)C(C)C)C(=O)N[C@@H](CCC(N)=O)C(=O)N[C@@H](C)C(=O)N[C@@H](C)C(=O)N1)C(=O)N[C@@H](C)C(=O)N[C@@H](Cc1c[nH]c2ccccc12)C(=O)N[C@@H](CC(C)C)C(=O)N[C@H](C(=O)N[C@@H](CCCCN)C(=O)NCC(=O)N[C@@H](CCCNC(=N)N)C(=O)NCC(N)=O)C(C)C` [GLP1(7-37) cyclo[Lys16-Glu20], HGEGTFTSDVSSYLEKQAAEEFIAWLVKGRG AMIDE] (H-HGEGTFTSDVSSYLEKQAAEEFIAWLVKGRG-NH2; lactam 16-20), it took 0.016 nM to reach a half-maximal effect in assay [1] (EC50).

For the compound `CC[C@H](C)[C@H](NC(=O)[C@H](Cc1ccccc1)NC(=O)[C@H](CCC(=O)O)NC(=O)[C@H](CCCCN)NC(=O)[C@H](C)NC(=O)[C@H](C)NC(=O)[C@H](CCC(N)=O)NC(=O)CNC(=O)[C@H](CCC(=O)O)NC(=O)[C@H](CC(C)C)NC(=O)[C@H](Cc1ccc(O)cc1)NC(=O)[C@H](CO)NC(=O)[C@H](CO)NC(=O)[C@@H](NC(=O)[C@H](CC(=O)O)NC(=O)[C@H](CO)NC(=O)[C@@H](NC(=O)[C@H](Cc1ccccc1)NC(=O)[C@@H](NC(=O)CNC(=O)[C@H](CCC(=O)O)NC(=O)[C@H](C)NC(=O)[C@H](Cc1c[nH]cn1)NC(=O)[C@H](CCC(=O)O)NC(=O)[C@@H](N)CCSC)[C@@H](C)O)[C@@H](C)O)C(C)C)C(=O)N[C@@H](C)C(=O)N[C@@H](Cc1c[nH]c2ccccc12)C(=O)N[C@@H](CC(C)C)C(=O)N[C@H](C(=O)N[C@@H](CCCCN)C(=O)NCC(=O)N[C@@H](CCCNC(=N)N)C(=O)O)C(C)C` [ME-GLP1, ME HAEGTFTSDVSSYLEGQAAKEFIAWLVKGR], the EC50 in assay [1] (setting [4]) was found to be 1 nM; in assay [2] it was 4 nM. The term IC50 denotes the concentration at which inhibition is half-maximal. High values mean lower potency, low ones higher potency. On to `CC[C@H](C)[C@H](NC(=O)[C@H](Cc1ccccc1)NC(=O)[C@H](CCC(=O)O)NC(=O)[C@H](CCCCN)NC(=O)[C@H](C)NC(=O)[C@H](C)NC(=O)[C@H](CCC(N)=O)NC(=O)CNC(=O)[C@H](CCC(=O)O)NC(=O)[C@H](CC(C)C)NC(=O)[C@H](Cc1ccc(O)cc1)NC(=O)[C@H](CO)NC(=O)[C@H](CO)NC(=O)[C@@H](NC(=O)[C@H](CC(=O)O)NC(=O)[C@H](CO)NC(=O)[C@@H](NC(=O)[C@H](Cc1ccccc1)NC(=O)[C@@H](NC(=O)CNC(=O)[C@H](CCC(=O)O)NC(=O)[C@H](C)NC(=O)[C@H](Cc1c[nH]cn1)NC(=O)[C@H](Cc1c[nH]cn1)NC(=O)[C@@H](N)CCSC)[C@@H](C)O)[C@@H](C)O)C(C)C)C(=O)N[C@@H](C)C(=O)N[C@@H](Cc1c[nH]c2ccccc12)C(=O)N[C@@H](CC(C)C)C(=O)N[C@H](C(=O)N[C@@H](CCCCN)C(=O)NCC(=O)N[C@@H](CCCNC(=N)N)C(=O)O)C(C)C` [MH-GLP1, MH HAEGTFTSDVSSYLEGQAAKEFIAWLVKGR], for which the concentration for half-maximal inhibition (IC50) in assay [3] was found to be 350 nM.

In the case of `CC[C@H](C)[C@H](NC(=O)[C@H](Cc1ccccc1)NC(=O)[C@H](CCC(=O)O)NC(=O)[C@H](CCCCN)NC(=O)[C@H](C)NC(=O)[C@H](C)NC(=O)[C@H](CCC(N)=O)NC(=O)CNC(=O)[C@H](CCC(=O)O)NC(=O)[C@H](CC(C)C)NC(=O)[C@H](Cc1ccc(O)cc1)NC(=O)[C@H](CO)NC(=O)[C@H](CO)NC(=O)[C@@H](NC(=O)[C@H](CC(=O)O)NC(=O)[C@H](CO)NC(=O)[C@@H](NC(=O)[C@H](Cc1ccccc1)NC(=O)[C@@H](NC(=O)CNC(=O)[C@H](CCC(=O)O)NC(=O)[C@H](C)NC(=O)[C@H](Cc1c[nH]cn1)NC(=O)[C@H](CCCCN)NC(=O)[C@@H](N)CCSC)[C@@H](C)O)[C@@H](C)O)C(C)C)C(=O)N[C@@H](C)C(=O)N[C@@H](Cc1c[nH]c2ccccc12)C(=O)N[C@@H](CC(C)C)C(=O)N[C@H](C(=O)N[C@@H](CCCCN)C(=O)NCC(=O)N[C@@H](CCCNC(=N)N)C(=O)O)C(C)C` [MK-GLP1, MK HAEGTFTSDVSSYLEGQAAKEFIAWLVKGR], in assay [1] (setting [4]), the EC50 is 4 nM. Regarding `CC[C@H](C)[C@H](NC(=O)[C@H](Cc1ccccc1)NC(=O)[C@H](CCC(=O)O)NC(=O)[C@H](CCCCN)NC(=O)[C@H](C)NC(=O)[C@H](C)NC(=O)[C@H](CCC(N)=O)NC(=O)CNC(=O)[C@H](CCC(=O)O)NC(=O)[C@H](CC(C)C)NC(=O)[C@H](Cc1ccc(O)cc1)NC(=O)[C@H](CO)NC(=O)[C@H](CO)NC(=O)[C@@H](NC(=O)[C@H](CC(=O)O)NC(=O)[C@H](CO)NC(=O)[C@@H](NC(=O)[C@H](Cc1ccccc1)NC(=O)[C@@H](NC(=O)CNC(=O)[C@H](CCC(=O)O)NC(=O)[C@H](C)NC(=O)[C@H](Cc1c[nH]cn1)NC(=O)[C@H](CCC(N)=O)NC(=O)[C@@H](N)CCSC)[C@@H](C)O)[C@@H](C)O)C(C)C)C(=O)N[C@@H](C)C(=O)N[C@@H](Cc1c[nH]c2ccccc12)C(=O)N[C@@H](CC(C)C)C(=O)N[C@H](C(=O)N[C@@H](CCCCN)C(=O)NCC(=O)N[C@@H](CCCNC(=N)N)C(=O)O)C(C)C` [MQ-GLP1, MQ HAEGTFTSDVSSYLEGQAAKEFIAWLVKGR], the values for the EC50 in assay [1] (setting [4]) and in assay [2] were 0.5 nM and 3 nM, respectively.

As for `CC[C@H](C)[C@H](NC(=O)[C@H](Cc1ccccc1)NC(=O)[C@H](CCC(=O)O)NC(=O)[C@H](CCCCN)NC(=O)[C@H](C)NC(=O)[C@H](C)NC(=O)[C@H](CCC(N)=O)NC(=O)CNC(=O)[C@H](CCC(=O)O)NC(=O)[C@H](CC(C)C)NC(=O)[C@H](Cc1ccc(O)cc1)NC(=O)[C@H](CO)NC(=O)[C@H](CO)NC(=O)[C@@H](NC(=O)[C@H](CC(=O)O)NC(=O)[C@H](CO)NC(=O)[C@@H](NC(=O)[C@H](Cc1ccccc1)NC(=O)[C@@H](NC(=O)CNC(=O)[C@H](CCC(=O)O)NC(=O)[C@H](C)NC(=O)[C@H](Cc1c[nH]cn1)NC(=O)[C@H](Cc1c[nH]c2ccccc12)NC(=O)[C@@H](N)CCSC)[C@@H](C)O)[C@@H](C)O)C(C)C)C(=O)N[C@@H](C)C(=O)N[C@@H](Cc1c[nH]c2ccccc12)C(=O)N[C@@H](CC(C)C)C(=O)N[C@H](C(=O)N[C@@H](CCCCN)C(=O)NCC(=O)N[C@@H](CCCNC(=N)N)C(=O)O)C(C)C` [MW-GLP1, MW HAEGTFTSDVSSYLEGQAAKEFIAWLVKGR], the EC50 in assay [1] (setting [4]) turned out to be 0.8 nM; in assay [2], 5 nM. “cgGLP-1: SEQ ID NO: 6 + 20K PEG (HGEGTFTSDVSSYLEGC(PEG 20 kDa)AAKEFIAWLVKGRG)”: the IC50 in assay [3] (setting [5]) is over 1000 nM. The EC50 in assay [1] (setting [4]) is 12 nM. The corresponding values for “cgGLP-2: SEQ ID NO: 6 + 40k branched PEG (HGEGTFTSDVSSYLEGC(branched PEG 40 kDa)AAKEFIAWLVKGRG)” are over 1000 nM and 0.7 nM.

As for “cgGLP-7: SEQ ID NO: 6 + 30k PEG (HGEGTFTSDVSSYLEGC(PEG 30 kDa)AAKEFIAWLVKGRG)”, the IC50 in assay [3] (setting [5]) is over 1000 nM. The compound “cgGLP-13: SEQ ID NO: 8 + 20k PEG monomer (HGEGTFTSDVSSYLEGC(PEG 20 kDa)AAKEFIAWLKNGGPSSGAPPPS)” displayed an IC50 in assay [3] (setting [5]) of over 1000 nM. The EC50 in assay [1] (setting [4]) was 1 nM.
